Source: PMC11003925, “Antimicrobial activity and properties of de novo design of short synthetic lipopeptides” (Folia Microbiologica, 2024)
Values after ≈ are worked out from the molar mass of the structure shown. Residues, ends and D or L forms follow the SMILES beside them. *: point of attachment. Palmitoyl = CCCCCCCCCCCCCCCC(=O)*

How the values were obtained:
A. baumannii DBM 3183 = test: microbe, parasite or virus in culture; assay type: cell-based, Acinetobacter baumannii; settings: DBM 3183, 25 h
Ps. aeruginosa DBM 3081 = assay type: cell-based, Pseudomonas aeruginosa; settings: 25 h
B. subtilis DBM 3006 = assay type: cell-based, Bacillus subtilis
M. luteus DBM 3053 = assay type: cell-based, Micrococcus luteus
Staph. aureus DBM 3002 = assay type: cell-based, Staphylococcus aureus
Staph. aureus MRSA1 [1] = assay type: cell-based, Staphylococcus aureus
C. tropicalis DBM 2166 = assay type: cell-based, Candida tropicalis
Staph. aureus MRSA1 [2] = assay type: cell-based, Staphylococcus aureus; settings: 24 h, 2
Procedure: This assay was used to determine how quick the effect of PAL/LCA-peptides is on bacteria, as well as whether the activity of these compounds is dependent on the presence of active bacterial metabolism (Kamysz et al. [2007]). The bacterial cultures were incubated overnight at 37 °C in Mueller–Hinton’s broth 2 or potassium phosphate buffer (0.1 M, pH 7). Cultures were diluted to OD600 equal to 0.1 and divided into 2 samples, and the final volume of each sample was 1 mL; after that, they were centrifuged (5000 × g, 10 min) to collect bacteria. […] The samples were incubated at 37 °C. At specific time intervals, samples of bacterial suspension were taken, diluted, and spread on Petri dishes with Mueller–Hinton’s agar to count the number of surviving cells as colony-forming units (CFU). The whole experiment lasted 24 h.

bacterial membrane = test: Membrane disruption (released lactate dehydrogenase activity); assay type: cell-based, Staphylococcus aureus; settings: 1 h incubation at 37 °C, LDH kit, triplets
Procedure: The disruption of the microbial membrane was followed by the detection of lactate dehydrogenase activity released from the intracellular space using a Cytotoxicity Detection Kit (LDH) from Roche (Korzeniewski and Callewaert [1983]; Macurkova et al. [2014]) after 1 h incubation at 37 °C with the PAL/LCA-peptide. The culture supernatant was collected and incubated with the reaction mixture from the kit. In the first step, NAD^+ is reduced to NADH + H^+ by the LDH-catalyzed conversion of lactate to pyruvate. In the second step, the catalyst (diaphorase) transfers H/H^+ from NADH + H^+ to the tetrazolium salt 2-(4-iodophenyl)-3-(4-nitrophenyl)-5-phenyl-2H-tetrazolium chloride (INT), which is reduced to formazan. The formazan dye formed is red and water-soluble and gives a broad absorption maximum at 500 nm. An increase in the amount of dead or plasma membrane-damaged cells results in an increase in the LDH activity in the cell culture supernatant.
To determine the degree of damage to the cell membrane (%) by the tested substances, averages of absorbances (triplets) were calculated from the measured values for the samples, controls, and pure medium. Subsequently, the absorbance average for the clean medium (background) was subtracted from all averages obtained in this way. The degree of damage to the cell membrane by the tested substances was expressed as follows: membranedamage%=((AVZ-∅ANK)/(∅APK-ANK))∙100 ∅AVZ⋯averageabsorbanceofsample ∅ANK⋯averageabsorbanceofnegativecontrol ∅APK⋯averageabsorbanceofpositivecontrol

plasmid pGreen 0029 = test: DNA binding assay (gel retardation); settings: circular or linearized forms, tested ratios

IC50 (A. baumannii DBM 3183): 60.0 µg/mL (≈ 68.2 µM)
IC50 (Ps. aeruginosa DBM 3081): 60.0 µg/mL (≈ 68.2 µM)
MIC (B. subtilis DBM 3006; DBM 3006, 24 h): 16.9 µg/mL (≈ 19.2 µM)
IC50 (B. subtilis DBM 3006; DBM 3006, 25 h): 25.0 µg/mL (≈ 28.4 µM)
MIC (M. luteus DBM 3053; DBM 3053, 24 h): 6.4 µg/mL (≈ 7.27 µM)
IC50 (M. luteus DBM 3053; DBM 3053, 25 h): 10.0 µg/mL (≈ 11.4 µM)
MIC (Staph. aureus DBM 3002; 24 h): 27.7 µg/mL (≈ 31.5 µM)
IC50 (Staph. aureus DBM 3002; 25 h): 50.0 µg/mL (≈ 56.8 µM)
MIC (Staph. aureus MRSA1 [1]; 24 h): 7.8 µg/mL (≈ 8.86 µM)
IC50 (Staph. aureus MRSA1 [1]; 25 h): 12.5 µg/mL (≈ 14.2 µM)
MIC (C. tropicalis DBM 2166; DBM 2166, 24 h): 55.9 µg/mL (≈ 63.5 µM)
IC50 (C. tropicalis DBM 2166; DBM 2166, 25 h): 100.0 µg/mL (≈ 114 µM)
influence on electrophoretic mobility of plasmid DNA (plasmid pGreen 0029): did not exhibit any influence
Compound: CCCCCCCCCCCCCCCC(=O)N[C@@H](CC(C)C)C(=O)N[C@H](C(=O)N[C@@H](CCCCN)C(=O)N[C@@H](CCCNC(=N)N)C(=O)N[C@@H](C)C(=O)NCC(N)=O)C(C)C [SHP-1.2, PAL-LVKRAG-NH2] (Palmitoyl-LVKRAG-NH2)
bacteria killed within half an hour (Staph. aureus MRSA1 [2]): 100%
Membrane damage (%) (bacterial membrane; KP (potassium phosphate buffer)): 32 ± 4%
Membrane damage (%) (bacterial membrane; MHB (Mueller–Hinton broth II)): 26 ± 3%
